Laboratory results reported in the NIST ThermoML archive (doi:10.1016/j.jct.2006.09.007).

Assays:
[1] = xn = mol fraction of the nth substance listed; settings: 101.3 kPa, Liquid
[2] = molar heat capacity at constant pressure; settings: 298.15 K; 101.33 kPa; Liquid; Flow calorimetry
[3] = 101.3 kPa, Liquid

N#Cc1ccccc1 [benzonitrile] + Cc1cccc(C)c1
[1], 298.15 K, Flow calorimetry
Settings | excess molar heat capacity [J/K/mol]
x1 = 0.0568 | 0.522
x1 = 0.0772 | 0.686
x1 = 0.1671 | 1.299
x1 = 0.2404 | 1.53
x1 = 0.3272 | 1.727
x1 = 0.4115 | 1.696
x1 = 0.4878 | 1.66
x1 = 0.5753 | 1.415
x1 = 0.6422 | 1.272
x1 = 0.7301 | 0.936
x1 = 0.8157 | 0.683
x1 = 0.887 | 0.377
x1 = 0.9334 | 0.254

mass density [kg/m3], [1]
Settings | x1 = 0.0741 | x1 = 0.1804 | x1 = 0.316 | x1 = 0.4608 | x1 = 0.5438 | x1 = 0.6475 | x1 = 0.74 | x1 = 0.8816 | x1 = 0.899 | x1 = 1
298.15 K | 869.26 | 883.15 | 901.15 | 920.81 | 932.33 | 947.01 | 960.47 | 981.74 | 984.42 | 1000.25
308.15 K | 859.61 | 873.5 | 891.52 | 911.17 | 922.69 | 937.4 | 950.87 | 972.18 | 974.85 | 990.67

Cc1ccc(C)cc1 [1,4-dimethylbenzene]
Settings | molar heat capacity at constant pressure [J/K/mol]
[2] | 181.73

[3]
Settings | mass density [kg/m3]
298.15 K | 856.48
308.15 K | 846.98

N#Cc1ccccc1 [benzonitrile] + Cc1ccccc1C
[1]
Settings | excess molar heat capacity, 298.15 K [J/K/mol] | mass density, 298.15 K [kg/m3] | mass density, 308.15 K [kg/m3]
x1 = 0.0394 | 0.448 | – | –
x1 = 0.0781 | 0.829 | – | –
x1 = 0.0815 | – | 884.98 | 875.72
x1 = 0.1262 | – | 890.21 | 881
x1 = 0.1398 | 1.273 | – | –
x1 = 0.1604 | – | 894.21 | 884.95
x1 = 0.2299 | 1.689 | – | –
x1 = 0.2579 | – | 905.68 | 896.47
x1 = 0.2803 | 1.799 | – | –
x1 = 0.3687 | 1.875 | – | –
x1 = 0.4054 | – | 923.32 | 914.01
x1 = 0.4391 | 1.792 | – | –
x1 = 0.496 | – | 934.4 | 925.13
x1 = 0.5361 | – | 939.32 | 929.98
x1 = 0.5364 | 1.592 | – | –
x1 = 0.611 | 1.376 | – | –
x1 = 0.6558 | – | 954.37 | 945.1
x1 = 0.6924 | – | 959.03 | 949.64
x1 = 0.7003 | 1.11 | – | –
x1 = 0.7684 | 0.826 | – | –
x1 = 0.8727 | 0.479 | – | –
x1 = 0.876 | – | 983.2 | 973.86
x1 = 0.9031 | – | 986.86 | 977.39
x1 = 0.9314 | 0.242 | – | –
x1 = 0.9608 | – | 994.84 | 985.42
x1 = 1 | – | 1000.25 | 990.67
